Assay [1] has as its system MOLT-4. Put plainly: Cell viability (CellTiter Glo), compressed perturbation pools with informed pool design, MAX-based deconvolution, MOLT-4.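 As to DRS from MAX-based deconvolution: higher DRS means a larger drug effect.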 As to conditions: for DRS: MOLT-4, None (measured individually), informed pool design table; for DRS from MAX-based deconvolution: MOLT-4, Samples, 7 Pick 3 informed perturbation pools; for DRS, MOLT-4, MAX: compressed perturbation pools, informed pool design, MAX-based deconvolution. An outline of the steps:
(§1)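 Drugs dosed from 1 nM to 10 μM with ATP-luminescence viability, giving a DRS per drug. Pools designed by drug class, with same-class drugs in separate cohorts and clinically toxic pairs kept apart.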

The subject of assay [2] is MOLT-4. Put plainly: Cell viability (CellTiter Glo), compressed perturbation pools with informed pool design, SUM-based deconvolution, MOLT-4. On the set-up: scale not given here. Here is the method:
(§2) Total cell viability was measured for each sample using an ATP-based luminescence assay (i.e., CellTiter Glo). Each cancer drug was then screened at multiple concentrations ranging from one nM to ten μM in order to generate a dose-response curve and calculate a DRS for each cancer cell line.
(§3) Each cancer drug was cultured with target cells individually. At the end of the screen, samples were either analyzed individually or compressed into pools for analysis. The library was compressed alphabetically into ten cohorts, each of which contained seven cancer drugs present in three out of the seven pools, as shown in Table VII. Said another way, the screening platform 210 generated a “7 pick 3” compressed library by assigning the cancer drugs among different pools. […] The library was also compressed into ten cohorts with pools designed based on information known about each cancer drug, as shown in Table VIII. After cell viability measurement and DRS calculation, the DRS of each cancer drug in the samples generated based on the pools were deconvoluted and compared to the DRS for each cancer drug measured individually.
(§4) In parallel to the exemplary sample compression screen covered in Table VII, perturbations were compressed into pools and then screened. The pools were designed using drug class as a feature with two compression rules (or simply “rules”). The first rule required that drugs from the same class be separated into different cohorts (i.e., mutually exclusive groups of pools). The second rule separated PI3K pathway inhibitors from MAPK pathway inhibitors, as inhibiting these pathways in parallel is known to be synergistic but has not been clinically effective due to dose-limiting toxicities. A benefit of compressing perturbations is the ability to measure additive, antagonistic, and synergistic effects between drugs in the same pool. However, these effects can negatively impact deconvolution of individual drug effects. Therefore, combinations of drugs for which evidence of clinical toxicity exists can be assigned to different pools in accordance with an informed pooling operation. As new preclinical or clinical evidence of toxic combinations becomes available, the rules implemented by the screening platform 210—and more specifically, its algorithm for compressing members of a library—can be updated accordingly.
(§5) In SUM-based deconvolution, an assumption of additivity is used to quantify the individual effects of each perturbation on each target. Additivity implies that each perturbation effect on each target is positively contributing to the overall effect measured for that pool. This is an accurate assumption for certain experiments, such as when targets or samples are compressed. When targets are pooled—or when samples containing different targets are pooled—the effect of each perturbation on each individual target is diluted. In other words, each perturbation has an isolated effect on a target in culture, and the sum total of the isolated effects are measured when pooled. Therefore, SUM-based deconvolution breaks down the sum total measured for a pool and assigns estimated fractional effects to each compressed perturbation or target in the pool. The screening platform 210 used SUM-based deconvolution for all target and sample compression experiments described above.
(§6) As mentioned above, SUM-based deconvolution uses the overlapping pool design to identify relative relationships and ranges for the individual effects of each perturbation. When the overlapping pool design is not sufficient to solve for the polynomials representing perturbation effects, an anchor perturbation can be identified by the screening platform 210 based on rank order and assigned an effect size of zero. The anchor perturbation may be the lowest ranked perturbation in the rank order. This then enables the screening platform 210 to solve for the polynomials for the remaining perturbations.
A general note: Cellular ATP, detected with luciferase, serves as a proxy for viable cell number.

Assay [3] has as its system REH. Put plainly: Cell viability (CellTiter Glo), compressed perturbation pools with informed pool design, MAX-based deconvolution, REH.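 As to DRS from MAX-based deconvolution: higher DRS means a larger drug effect.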 As to conditions: REH; for DRS: None (measured individually), informed pool design table; for DRS from MAX-based deconvolution: Samples, 7 Pick 3 informed perturbation pools; for DRS, REH, MAX: compressed perturbation pools, informed pool design, MAX-based deconvolution. In short, it runs like this: as §1

In assay [4] the test system is MOLT-4. Put plainly: Cell viability (CellTiter Glo), library of cancer drugs, individual or sample compression with randomized (alphabetical) pools, MOLT-4. It counts as cell-based. As to conditions: for DRS: MOLT-4, None (measured individually); for DRS from deconvolution: MOLT-4, Samples, 7 Pick 3 randomized (alphabetical) sample pools. An outline of the steps:
(§7)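 Cells cultured with each drug individually at 1 nM–10 μM; viability by ATP luminescence (CellTiter Glo) to build dose-response curves and DRS. Samples read singly or pooled alphabetically (each drug in 3 of 7 pools), with pooled DRS recovered by additivity-based SUM deconvolution.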

Assay [5] relates to REH. Put plainly: Cell viability (CellTiter Glo), library of cancer drugs, individual or sample compression with randomized (alphabetical) pools, REH. The assay is classed as cell-based. The settings on record: REH; for DRS: None (measured individually); for DRS from deconvolution: Samples, 7 Pick 3 randomized (alphabetical) sample pools. An outline of the steps:
as §7

Assay [6] relates to REH. Put plainly: Cell viability (CellTiter Glo), compressed perturbation pools with informed pool design, SUM-based deconvolution, REH. On the set-up: scale not given here. Here is the method:
as §2, §3, §4, §5, §6

In the case of `Cc1ccc(NC(=O)c2ccc(CN3CCN(C)CC3)cc2)cc1Nc1nccc(-c2cccnc2)n1` [Imatinib], in assay [1], the DRS was determined as 13.99; the “DRS from MAX-based deconvolution” value is on record as 15.14; the “DRS, MOLT-4, MAX” value came to 0.00. Moreover, in assay [2], the “DRS, MOLT-4, SUM” value was found to be 1.34. Also, in assay [3], the DRS was found to be 15.29; the “DRS from MAX-based deconvolution” value was determined as 18.48; the “DRS, REH, MAX” value was determined as 0.00. In assay [4], this compound had a DRS of 0.88 and a DRS from deconvolution of 0.89. In assay [5], this compound had a DRS of 1.78 and a DRS from deconvolution of 1.90. In addition, the “DRS, REH, SUM” value in assay [6] is 1.81.
Consider `C[C@@H](Oc1cc(-c2cnn(C3CCNCC3)c2)cnc1N)c1c(Cl)ccc(F)c1Cl` [Crizotinib], for which, in assay [1], the DRS turned out to be 0.27; the “DRS from MAX-based deconvolution” value came out at 0.27; the “DRS, MOLT-4, MAX” value is 0.00. Further, the “DRS, MOLT-4, SUM” value in assay [2] is 3.06. In assay [3], the DRS is reported as 0.27; the “DRS from MAX-based deconvolution” value came out at 0.00; the “DRS, REH, MAX” value turned out to be 0.00. In assay [4], the DRS came to 0.23 and the DRS from deconvolution is listed as 0.28. Besides, in assay [5], the DRS was determined as 0.23 and the DRS from deconvolution was 015. Moreover, in assay [6], the “DRS, REH, SUM” value is reported as 0.00.
For the compound `CCOc1cc2ncc(C#N)c(Nc3ccc(OCc4ccccn4)c(Cl)c3)c2cc1NC(=O)/C=C/CN(C)C` [Neratinib], the “effect size relative to everolimus” value in assay [1] (MOLT, Cohort 10) is listed as “larger effect size than everolimus”. Further, in assay [1], the DRS amounted to 29.89; the “DRS from MAX-based deconvolution” value was determined as 35.00; the “DRS, MOLT-4, MAX” value is given as 4.35. Moreover, in assay [2], the “DRS, MOLT-4, SUM” value came out at 2.74. Further, in assay [3], the DRS was determined as 29.39; the “DRS from MAX-based deconvolution” value is listed as 34.11; the “DRS, REH, MAX” value is given as 3.06. Moreover, in assay [4], the DRS turned out to be 4.08 and the DRS from deconvolution was found to be 4.32. In addition, in assay [5], the DRS is recorded as 2.58 and the DRS from deconvolution turned out to be 2.32. In addition, the “DRS, REH, SUM” value in assay [6] is given as 0.37.
As to `COc1cc2ncnc(Nc3ccc(F)c(Cl)c3)c2cc1NC(=O)/C=C/CN1CCCCC1` [Dacomitinib], in assay [1], the DRS turned out to be 0.00; the “DRS from MAX-based deconvolution” value is 0.00; the “DRS, MOLT-4, MAX” value is on record as 0.00. Also, in assay [2], the “DRS, MOLT-4, SUM” value is on record as 0.99. For the same compound, in assay [3], the DRS is 0.00; the “DRS from MAX-based deconvolution” value came out at 0.00; the “DRS, REH, MAX” value worked out at 0.00. Besides, in assay [4], the DRS was 2.60 and the DRS from deconvolution is 2.53. In addition, in assay [5], the DRS is on record as 3.10 and the DRS from deconvolution stood at 3.15. Further, in assay [6], the “DRS, REH, SUM” value is reported as 1.33.
In the case of `NC(=O)c1cccc2cn(-c3ccc([C@@H]4CCCNC4)cc3)nc12` [Niraparib], in assay [1], the DRS stood at 6.12; the “DRS from MAX-based deconvolution” value came out at 8.06; the “DRS, MOLT-4, MAX” value turned out to be 0.00. Also, the “DRS, MOLT-4, SUM” value in assay [2] stood at 0.00. Further, in assay [3], the DRS is 4.42; the “DRS from MAX-based deconvolution” value is on record as 5.23; the “DRS, REH, MAX” value is 0.00. In assay [4], this compound registered a DRS of 4.30 and a DRS from deconvolution of 4.85. Moreover, in assay [5], the DRS is 0.70 and the DRS from deconvolution stood at 0.59. In addition, the “DRS, REH, SUM” value in assay [6] came to 0.00.
For the compound `CNC(=O)c1ccc(N2C(=S)N(c3cnc(C#N)c(C(F)(F)F)c3)C(=O)C23CCC3)cc1F` [Apalutamide], in assay [1], the DRS amounted to 0.00; the “DRS from MAX-based deconvolution” value turned out to be 0.00; the “DRS, MOLT-4, MAX” value was found to be 4.94. The “DRS, MOLT-4, SUM” value in assay [2] was 1.88. In assay [3], the DRS is reported as 0.00; the “DRS from MAX-based deconvolution” value is listed as 0.00; the “DRS, REH, MAX” value is reported as 0.73. Moreover, in assay [4], the DRS came to 0.38 and the DRS from deconvolution came to 0.33. In assay [5], this compound registered a DRS of 0.38 and a DRS from deconvolution of 0.35. The “DRS, REH, SUM” value in assay [6] was found to be 0.73.
Regarding `O=C(/C=C/c1cccc(S(=O)(=O)Nc2ccccc2)c1)NO` [Belinostat], in assay [1], the DRS turned out to be 13.42; the “DRS from MAX-based deconvolution” value was 15.55; the “DRS, MOLT-4, MAX” value was 21.41. In addition, the “DRS, MOLT-4, SUM” value in assay [2] is 14.77. Further, in assay [3], the DRS was determined as 12.12; the “DRS from MAX-based deconvolution” value amounted to 14.23; the “DRS, REH, MAX” value stood at 18.94. Also, in assay [4], the DRS is recorded as 18.70 and the DRS from deconvolution is 12.21. Besides, in assay [5], the DRS came to 16.20 and the DRS from deconvolution is recorded as 15.81. In assay [6], the “DRS, REH, SUM” value was found to be 18.09.
Consider `COc1cc(OC)cc(N(CCNC(C)C)c2ccc3ncc(-c4cnn(C)c4)nc3c2)c1` [Erdafitinib], for which, in assay [1], the DRS stood at 0.38; the “DRS from MAX-based deconvolution” value was 4.94; the “DRS, MOLT-4, MAX” value is 3.88. Moreover, the “DRS, MOLT-4, SUM” value in assay [2] stood at 1.38. Also, in assay [3], the DRS was 0.38; the “DRS from MAX-based deconvolution” value is recorded as 0.73; the “DRS, REH, MAX” value was 0.00. In assay [4], this compound yielded a DRS of 3.37 and a DRS from deconvolution of 3.41. In assay [5], this compound displayed a DRS of 4.37 and a DRS from deconvolution of 4.03. Moreover, in assay [6], the “DRS, REH, SUM” value amounted to 0.00.
As for `Cc1nc(NC(=O)N2CCC[C@H]2C(N)=O)sc1-c1ccnc(C(C)(C)C(F)(F)F)c1` [Alpelisib], in assay [1], the DRS amounted to 0.01; the “DRS from MAX-based deconvolution” value came to 0.00; the “DRS, MOLT-4, MAX” value was 0.00. Besides, the “DRS, MOLT-4, SUM” value in assay [2] is given as 0.00. Besides, in assay [3], the DRS was found to be 0.21; the “DRS from MAX-based deconvolution” value was determined as 0.35; the “DRS, REH, MAX” value came out at 3.57. For the same compound, in assay [4], the DRS was determined as 1.79 and the DRS from deconvolution was determined as 1.94. In assay [5], this compound showed a DRS of 0.79 and a DRS from deconvolution of 0.75. Moreover, in assay [6], the “DRS, REH, SUM” value came out at 1.12.
`C[C@H](Nc1ncnc2nc[nH]c12)c1cc2cccc(Cl)c2c(=O)n1-c1ccccc1` [Duvelisib]: the DRS in assay [1] is recorded as 5.28; in assay [3] it was 2.58; in assay [4], 0.00; in assay [5], 0.00. Also, the “DRS from MAX-based deconvolution” value in assay [1] is reported as 5.28; in assay [3], 3.75. Moreover, the DRS from deconvolution in assay [4] and in assay [5] was 0.00 each time.
With `Cc1cc(Nc2ncc(Cl)c(Nc3ccccc3S(=O)(=O)C(C)C)n2)c(OC(C)C)cc1C1CCNCC1` [Ceritinib], the DRS in assay [1] was found to be 6.77; in assay [3], 10.87; in assay [4], 0.00; in assay [5], 0.60. For the same compound, the “DRS from MAX-based deconvolution” value was found to be 6.77 in assay [1] and 12.65 in assay [3]. The DRS from deconvolution came to 0.00 in assay [4] and 0.60 in assay [5].

These data come from patent publication US20260378560A1, “APPROACHES TO DESIGNING AND PERFORMING COMPRESSED BIOLOGICAL EXPERIMENTS AND SYSTEMS FOR IMPLEMENTING THE SAME” (EXVIVO LABS INC., priority 2023, published 2026).
